Literature values as cited in US8822429B2, “Citicoline for the treatment of glaucoma and ocular hypertension” (Omikron Italia S.r.l., priority 2010, dated 2014).

Conditions: taken orally

Compound: C[N+](C)(C)CCOP(=O)(O)OP(=O)([O-])OC[C@H]1O[C@@H](n2ccc(N)nc2=O)[C@H](O)[C@@H]1O [Citicoline, cytidine-5′-diphosphocholine]
- excreted in the feces: less than 1%
- time of plasma peak after ingestion (first peak): 1 h
- time of second, larger plasma peak (larger peak following the first): 24 h
